The record followed here is patent publication US7576076B2, “Modified pyrimidine glucocorticoid receptor modulators” (Corcept Therapeutics, Inc., priority 2004, dated 2009).

For one assay, the target named is T1, human recombinant glucocorticoid receptor (Homo sapiens, UniProt P04150).
T1 construct: This GR was a full-length steroid hormone receptor; host or cells: recombinant baculovirus-infected insect cells
T1 sequence (P04150 1-777): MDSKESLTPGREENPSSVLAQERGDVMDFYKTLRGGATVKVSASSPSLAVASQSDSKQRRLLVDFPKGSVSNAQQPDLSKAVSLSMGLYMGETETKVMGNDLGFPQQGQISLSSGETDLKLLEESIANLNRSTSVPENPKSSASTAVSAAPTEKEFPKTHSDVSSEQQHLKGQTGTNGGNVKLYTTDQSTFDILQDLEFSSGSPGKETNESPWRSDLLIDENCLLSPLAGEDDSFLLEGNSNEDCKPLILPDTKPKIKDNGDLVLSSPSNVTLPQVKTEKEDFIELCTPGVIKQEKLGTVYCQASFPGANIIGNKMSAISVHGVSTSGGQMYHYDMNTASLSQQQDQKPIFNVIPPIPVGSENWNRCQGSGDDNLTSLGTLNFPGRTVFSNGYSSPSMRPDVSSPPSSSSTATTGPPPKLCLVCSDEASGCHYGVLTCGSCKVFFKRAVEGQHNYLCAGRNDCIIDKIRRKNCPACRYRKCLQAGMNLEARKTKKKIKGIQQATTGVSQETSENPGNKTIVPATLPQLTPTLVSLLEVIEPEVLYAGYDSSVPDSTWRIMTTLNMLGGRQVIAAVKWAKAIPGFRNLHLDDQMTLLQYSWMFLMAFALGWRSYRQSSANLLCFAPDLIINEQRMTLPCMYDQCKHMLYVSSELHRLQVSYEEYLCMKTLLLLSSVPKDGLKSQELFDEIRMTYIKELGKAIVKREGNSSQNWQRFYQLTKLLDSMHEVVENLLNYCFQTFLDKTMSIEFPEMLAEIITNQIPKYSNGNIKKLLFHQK
The experiment in a line: Glucocorticoid receptor binding displacement assay with 3H-dexamethasone. The settings on record: Ki. The method, then:
The source of the receptor was recombinant baculovirus-infected insect cells. This GR was a full-length steroid hormone receptor likely to be associated with heat-shock and other endogenous proteins.
For the Primary Screen, test compounds were tested at 1 μM in duplicate. These compounds were diluted from 10 mM stock in 100% DMSO. After dilution to 100 μM, 5 μl were added to 245 μl assay buffer to obtained 2 μM compound and 2% DMSO.
For the IC50 determinations, test compounds were tested at 6 concentrations in duplicate (concentration range depends on % inhibition binding that was obtained in the Primary Screen,). Test compounds were diluted from 10 mM stock in 100% DMSO. The tested solutions were prepared at 2×final assay concentration in 2% DMSO/assay buffer.
All reagents and the assay plate were kept on ice during the addition of reagents. […] After the additions, the incubation mixture was mixed and incubated for 2.5 hrs at 4° C.
After 2.5 hrs incubation, unbound counts were removed with dextran coated charcoal (DCC) as follows: 25 μl of DCC solution (10% DCC in assay buffer) was added to all wells and mixed (total volume 225 μl). The plate was centrifuged at 4000 rpm for 10 minutes at 4° C. 75 μl of the supernatants (i.e. ⅓ of total volume) was carefully pipetted into an optiplate. 200 μl of scintillation cocktail were added (Microscint-40, Packard Bioscience. B.V.). The plate was vigorously shaken for approx. 10 minutes and counted on Topcount.
The IC50 values were converted to Ki (the inhibition constant) using the Cheng-Prusoff equation.
Reagents: Assay buffer: 10 mM potassium phosphate buffer pH 7.6 containing 5 mM DTT, 10 mM sodium molybdate, 100 μM EDTA and 0.1% BSA.
The term Ki denotes the equilibrium dissociation constant of an inhibitor or competing ligand from its target. Take `Cn1c(=O)[nH]c(N2CCC(Oc3ccccc3)CC2)c(Cc2ccccc2)c1=O` [Compound 37]: the Ki lay in the range of 10 to 100 nM.

The assay is the same for the next values; noted with them: displacement of 2.5 nM 3H-dexamethasone; IC50 converted to Ki by Cheng-Prusoff; read-out: Ki.
For the compound `Cn1c(=O)[nH]c(N2CCN(Cc3ccccc3)CC2)c(Cc2ccccc2)c1=O` [Compound 16], the Ki is over 100 nM.
With `O=c1[nH]c(N2CCC(c3ccccc3)CC2)c(Cc2cccc(Cl)c2)c(=O)[nH]1` [Compound 35], the Ki is under 10 nM.
Turning to `CC(C)=CCc1c(N2CCC(Cc3ccccc3)CC2)[nH]c(=O)n(C)c1=O` [Compound 11], the Ki was over 100 nM.
Same read-out and setting: under `Cn1c(=O)[nH]c(N2CCC(Cc3ccccc3)CC2)c(Cc2ccccc2Br)c1=O` [Compound 3] stands over 100 nM; under `Cn1c(=O)[nH]c(N2CCC(O)(Cc3ccccc3)CC2)c(Cc2ccccc2)c1=O` [Compound 19], over 100 nM.
Same read-out and setting: the figure for `Cn1c(=O)[nH]c(N2CCC(Cc3ccccc3)CC2)c(Cc2ccc(F)cc2Cl)c1=O` [Compound 8] is over 100 nM; for `O=c1[nH]c(N2CCC(c3ccccc3)CC2)c(Cc2cccc(Br)c2)c(=O)[nH]1` [Compound 38] it is 10 to 100 nM; for `Cn1c(=O)[nH]c(N2CCC(Cc3ccccc3)CC2)c(Cc2ccc(C(C)(C)C)cc2)c1=O` [Compound 13] it is over 100 nM.
As for `O=c1[nH]c(N2CCN(Cc3ccccc3)CC2)c(Cc2ccccc2)c(=O)[nH]1` [Compound 22], the Ki was over 100 nM.
On the same count and under the same terms, under `Cn1c(=O)[nH]c(N2CCC(Cc3ccccc3)CC2)c(Cc2ccccc2Br)c1=O` [Compound 4] stands 10 to 100 nM; under `Cn1c(=O)[nH]c(N2CCC(Cc3ccccc3)CC2)c(Cc2ccc(F)cc2F)c1=O` [Compound 6], 10 to 100 nM.
For `O=c1[nH]c(N2CCC(c3ccccc3)CC2)c(Cc2ccc(Cl)cc2)c(=O)[nH]1` [Compound 36], the Ki was in the range of 10 to 100 nM.
In the case of `O=c1[nH]c(N2CCC(c3c[nH]c4ccccc34)CC2)c(Cc2ccccc2)c(=O)[nH]1` [Compound 42], the Ki lay within 10 to 100 nM.
On to `Cn1c(=O)[nH]c(N2CCC(O)CC2)c(Cc2cccc(C(F)(F)F)c2)c1=O` [Compound 1], for which the Ki was over 100 nM.
As for `Cn1c(=O)[nH]c(N2CCC(Cc3ccccc3)CC2)c(Cc2ccc(Br)cc2)c1=O` [Compound 7], the Ki is 10 to 100 nM.
As to `Cn1c(=O)[nH]c(N2CCC(Cc3ccccc3)CC2)c(Cc2ccc(C#N)cc2)c1=O` [Compound 9], the Ki is over 100 nM.
As to `Cn1c(=O)[nH]c(N2CCC(Cc3ccccc3)CC2)c(Cc2ccccc2-c2ccccc2)c1=O` [Compound 14], the Ki was over 100 nM.
In the case of `CC(C)Cn1c(=O)[nH]c(N2CCC(Cc3ccccc3)CC2)c(Cc2cccc(Cl)c2)c1=O` [Compound 26], the Ki was over 100 nM.
Same read-out and setting: under `O=c1[nH]c(N2CCC(c3ccccc3)CC2)c(Cc2ccccc2)c(=O)[nH]1` [Compound 31] stands under 10 nM.
Consider `Cn1c(=O)[nH]c(N2CCN(C(c3ccccc3)c3ccccc3)CC2)c(Cc2ccccc2)c1=O` [Compound 21], for which the inhibitory constant (Ki) is over 100 nM.
With `CCn1c(=O)[nH]c(N2CCC(c3ccccc3)CC2)c(Cc2cccc(Cl)c2)c1=O` [Compound 30], the inhibition constant (Ki) is over 100 nM.
On the same count and under the same terms, the figure for `Cc1ccc(Cc2c(N3CCC(Cc4ccccc4)CC3)[nH]c(=O)n(C)c2=O)cc1` [Compound 10] is 10 to 100 nM; for `O=c1[nH]c(N2CCC(Cc3ccccc3)CC2)c(Cc2ccccc2)c(=O)[nH]1` [Compound 18] it is 10 to 100 nM.
Turning to `O=c1[nH]c(N2CCC(c3ccccc3)CC2)c(Cc2ccccc2Cl)c(=O)[nH]1` [Compound 33], the Ki was under 10 nM.
With `CCn1c(=O)[nH]c(N2CCC(Cc3ccccc3)CC2)c(Cc2cccc(Cl)c2)c1=O` [Compound 29], the inhibition constant Ki is over 100 nM.
Still for that read-out and setting: the figure for `O=c1[nH]c(N2CCC(Cc3ccccc3)CC2)c(Cc2cccc(Cl)c2)c(=O)n1-c1ccccc1` [Compound 25] is over 100 nM; for `N#Cc1cccc(Cc2c(N3CCC(c4ccccc4)CC3)[nH]c(=O)[nH]c2=O)c1` [Compound 48] it is 10 to 100 nM; for `CCOC(=O)N1CCN(c2[nH]c(=O)n(C)c(=O)c2Cc2cccc(C(F)(F)F)c2)CC1` [Compound 2] it is over 100 nM.
In the case of `Cn1c(=O)[nH]c(N2CCC(Cc3ccccc3)CC2)c(Cc2ccccc2)c1=O` [Compound 5], the Ki lay in the range of 10 to 100 nM.
Consider `COc1cccc(C2CCN(c3[nH]c(=O)[nH]c(=O)c3Cc3ccccc3)CC2)c1` [Compound 39], for which the inhibition constant (Ki) is under 10 nM.
Still for that read-out and setting: under `COc1ccc(C2CCN(c3[nH]c(=O)[nH]c(=O)c3Cc3ccccc3)CC2)cc1` [Compound 40] stands 10 to 100 nM; under `O=c1[nH]c(N2CCC(c3ccccc3)CC2)c(Cc2cccc(Cl)c2)c(=O)n1Cc1ccccc1` [Compound 27], over 100 nM; under `Cn1c(=O)[nH]c(N2CCC(c3ccccc3)CC2)c(CCc2ccccc2)c1=O` [Compound 28], over 100 nM.
On the same count and under the same terms, the figure for `CC(=O)Nc1ccc(C2CCN(c3[nH]c(=O)[nH]c(=O)c3Cc3ccccc3)CC2)cc1` [Compound 46] is 10 to 100 nM; for `Cn1c(=O)[nH]c(N2CCC(c3ccccc3)CC2)c(Cc2ccccc2)c1=O` [Compound 17] it is 10 to 100 nM.
The same measure, in the same setting: under `COc1ccccc1C1CCN(c2[nH]c(=O)[nH]c(=O)c2Cc2ccccc2)CC1` [Compound 41] stands under 10 nM; under `Cn1c(=O)[nH]c(N2CCC(c3ccccc3)CC2)c(Cc2ccccc2Cl)c1=O` [Compound 34], 10 to 100 nM; under `O=c1[nH]c(N2CCC(Cc3ccccc3)CC2)c(Cc2cccc(Cl)c2)c(=O)n1Cc1ccccc1` [Compound 24], 10 to 100 nM.

A further assay concerns the target T2, endogenous glucocorticoid receptors in SW1353/MMTV-5 cells (Homo sapiens, UniProt P04150).
T2 construct: contains endogenous glucocorticoid receptors; endogenous in cells; host or cells: SW1353/MMTV-5 (human chondrosarcoma, stably transfected with the pMAMneo-Luc reporter only)
T2 sequence (P04150 1-777): T1 sequence (P04150 1-777)
The experiment in a line: GR functional assay using SW1353/MMTV-5 cells (luciferase reporter). It is filed as cell-based.
Details: not given
The method, then:
SW1353/MMTV-5 is an adherent human chondrosarcoma cell line that contains endogenous glucocorticoid receptors. It was transfected with a plasmid (pMAMneo-Luc) encoding firefly luciferase located behind a glucocorticoid-responsive element (GRE) derived from a viral promoter (long terminal repeat of mouse mammary tumor virus). A stable cell line SW1353/MMTV-5 was selected with geneticin, which was required to maintain this plasmid.
SW1353/MMTV-5 cells were distributed in 96-well plates and incubated in medium (without geneticin) for 24 hrs (in the absence of CO2).
In turn, `O=c1[nH]c(N2CCC(c3ccccc3)CC2)c(Cc2cccc(Cl)c2)c(=O)[nH]1` [Compound 35] registered a Ki of 10 to 100 nM.
Still for that read-out and setting: the figure for `O=c1[nH]c(N2CCC(c3ccccc3)CC2)c(Cc2cccc(Br)c2)c(=O)[nH]1` [Compound 38] is 10 to 100 nM; for `O=c1[nH]c(N2CCC(c3ccccc3)CC2)c(Cc2ccc(Cl)cc2)c(=O)[nH]1` [Compound 36] it is over 100 nM.
The same measure, in the same setting: the figure for `O=c1[nH]c(N2CCC(c3ccccc3)CC2)c(Cc2ccccc2)c(=O)[nH]1` [Compound 31] is 10 to 100 nM; for `O=c1[nH]c(N2CCC(c3ccccc3)CC2)c(Cc2ccccc2Cl)c(=O)[nH]1` [Compound 33] it is 10 to 100 nM; for `Cn1c(=O)[nH]c(N2CCC(c3ccccc3)CC2)c(Cc2ccccc2Cl)c1=O` [Compound 34] it is over 100 nM.
